By IC50 is commonly meant the concentration needed to halve the response being measured. Read a high IC50 as weaker potency in that assay.

This passage reports IC50 results from ChEMBL document CHEMBL1143604, “Structure-activity relationship studies optimizing the antiproliferative activity of novel cyclic somatostatin analogues containing a restrained cyclic beta-amino acid” (J Med Chem, 2005).

The test system of this experiment is A-431. The experiment can be described thus: Antiproliferative activity against human epidermiod carcinoma A431 cells. The experiment is classed as functional, cell-based.
Regarding `CCCC[C@@H]1NC(=O)[C@@H](Cc2c[nH]c3ccccc23)NC(=O)[C@H](Cc2ccc(O)cc2)NC(=O)[C@@H]2CCCN2C(=O)[C@H](Cc2ccccc2)NC(=O)[C@H]([C@@H](C)O)NC1=O`, 32 µM corresponded to half-maximal inhibition (IC50).
The same measure for `CCCC[C@@H]1NC(=O)[C@@H](Cc2c[nH]c3ccccc23)NC(=O)[C@H](Cc2ccc(O)cc2)NC(=O)[C@H]2C[C@@H](C)C=C(C)[C@H]2NC(=O)[C@H]([C@@H](C)OC(c2ccccc2)(c2ccccc2)c2ccccc2)NC1=O`: 5 µM; for `CCCC[C@@H]1NC(=O)[C@@H](Cc2c[nH]c3ccccc23)NC(=O)[C@H](Cc2ccc(O)cc2)NC(=O)[C@H]2C[C@@H](C)C=C(C)[C@H]2NC(=O)[C@H]([C@@H](C)O)NC1=O`: over 100 µM; for `C[C@@H](O)[C@@H]1NC(=O)C(CCCCN)NC(=O)[C@@H](Cc2c[nH]c3ccccc23)NC(=O)C(Cc2ccccc2)NC(=O)[C@@H]2CCCN2C(=O)C(Cc2ccccc2)NC1=O` (single isomer, unassigned): over 50 µM.
The result for `CCCC[C@@H]1NC(=O)[C@H](Cc2c[nH]c3ccccc23)NC(=O)[C@@H](Cc2ccc(O)cc2)NC(=O)[C@@H]2CCCN2C(=O)[C@H](Cc2ccccc2)NC(=O)[C@@H]([C@@H](C)OC(c2ccccc2)(c2ccccc2)c2ccccc2)NC1=O` reads 26 µM; that for `CCCC[C@@H]1NC(=O)[C@@H](Cc2c[nH]c3ccccc23)NC(=O)[C@@H](Cc2ccc(O)cc2)NC(=O)[C@H]2C[C@@H](C)C=C(C)[C@H]2NC(=O)[C@H]([C@@H](C)OC(c2ccccc2)(c2ccccc2)c2ccccc2)NC1=O`, 6 µM.
